{"source": "paper PMC2893943", "about": "(Nanoscale Research Letters, 2010)", "key": {"[1]": {"test_system": "LPS-induced inflammation model in rats", "assay_type": "in vivo, Sprague–Dawley rats", "details": "for ED50 based on neutrophil infiltration and cytokine production data: IT instillation of nanosuspension; for ED50 based on neutrophil infiltration and cytokine production data / EDmax / dose of maximum effect (EDmax): rat LPS model; for ED50 in the LPS assay: IT nanosuspension prior to LPS challenge, inhibition of neutrophil infiltration or TNFα production in BALF; for EDmax / dose of maximum effect (EDmax): IT nanosuspension"}, "thymus [2]": {"test_system": "thymus", "details": "7-day study, cited from earlier work"}, "[3]": {"test": "particle size distribution before and after wet milling", "assay_type": "physicochemical", "details": "for particle size D50 of the bulk material: before micronization; for particle size D50 after micronization: nanosuspension, wet milling"}, "thymus [4]": {"test_system": "thymus", "test": "six-day repeat dose side effect study: thymus involution", "assay_type": "in vivo, Sprague–Dawley rats", "details": "at the ED50 dose, IT once daily, 6 days"}, "adrenal [5]": {"test_system": "adrenal", "test": "six-day repeat dose side effect study: adrenal involution", "assay_type": "in vivo, Sprague–Dawley rats", "details": "at the ED50 dose (30 μg fluticasone, 100 μg ciclesonide), IT once daily, 6 days"}, "[6]": {"details": "cited from earlier work"}, "[7]": {"test_system": "antigen-induced airway inflammation (eosinophils in BALF)", "details": "cited from earlier work; for ED50, antigen-induced influx of eosinophils in airway BALF and lung tissue: IT-administered; for ED50 for the inhibition of eosinophil infiltration into BALF: as quoted with the 7-day side effect study"}, "[8]": {"test_system": "plasma corticosterone (HPA axis suppression)", "test": "six-day repeat dose side effect study: plasma corticosterone level", "assay_type": "in vivo, Sprague–Dawley rats", "details": "ED50 doses, 30 μg fluticasone, 2 h following the last dose"}, "[9]": {"details": "background statement, no reference given; cited from earlier work"}, "[10]": {"test_system": "plasma corticosterone (HPA axis suppression)", "details": "fluticasone 0.1 mg/kg; ciclesonide 0.01 to 0.1 mg/kg/day; 28-day; cited from earlier work"}, "adrenal [11]": {"test_system": "adrenal", "details": "7-day study, cited from earlier work"}, "bone growth": {"test_system": "bone growth", "details": "7-day study; cited from earlier work"}, "[12]": {"test": "six-day repeat dose side effect study: plasma drug exposure by LC/MS/MS", "assay_type": "in vivo, Sprague–Dawley rats", "details": "2 h post the last dose"}, "[13]": {"details": "IT administration, on the basis of dose"}}, "data": [{"smiles": "CCC(=O)O[C@]1(C(=O)SCF)[C@H](C)C[C@H]2[C@@H]3C[C@H](F)C4=CC(=O)C=C[C@]4(C)[C@@]3(F)[C@@H](O)C[C@@]21C", "note": "[fluticasone, fluticasone propionate]", "values": [{"measurement": "ED50 based on neutrophil infiltration and cytokine production data", "setting": "[1]", "result": 0.03, "unit": "mg"}, {"measurement": "ED50 in the LPS assay", "setting": "[1]", "result": 30, "unit": "µg"}, {"measurement": "EDmax", "setting": "[1]", "result": 0.1, "unit": "mg"}, {"measurement": "dose of maximum effect (EDmax)", "setting": "[1]", "result": 100, "unit": "µg"}, {"measurement": "fold more potent at inducing thymus involution compared to ciclesonide", "setting": "thymus [2]; [13]", "result": "sixfold"}, {"measurement": "particle size D50 of the bulk material", "setting": "[3]", "result": 35, "unit": "μm"}, {"measurement": "particle size D50 after micronization", "setting": "[3]", "result": 0.24, "unit": "μm"}, {"measurement": "average thymus involution", "setting": "thymus [4]", "result": "59.5 ± 5.8", "unit": "%"}, {"measurement": "average adrenal involution", "setting": "adrenal [5]", "result": "16.6 ± 5.1", "unit": "%"}, {"measurement": "plasma protein binding", "setting": "[6]", "result": 90, "unit": "%"}, {"measurement": "ED50, antigen-induced influx of eosinophils in airway BALF and lung tissue", "setting": "[7]", "result": 0.068, "unit": "mg/kg"}, {"measurement": "ED50 for the inhibition of eosinophil infiltration into BALF", "setting": "[7]", "result": 0.095, "unit": "mg/kg"}, {"measurement": "fold lower level of plasma corticosterone than 100 μg ciclesonide", "setting": "[8]", "result": "approximately 10"}, {"measurement": "bioavailability", "setting": "[9]", "result": "< 1", "unit": "%"}, {"measurement": "clearance", "setting": "[9]", "result": "~ liver blood flow"}, {"measurement": "effect on plasma corticosterone levels", "setting": "[10]", "result": "significantly suppressed"}, {"measurement": "fold more potent at inducing adrenal involution compared to ciclesonide", "setting": "adrenal [11]; [13]", "result": "approximately 44"}]}, {"smiles": "CC(C)C(=O)OCC(=O)[C@@]12O[C@H](C3CCCCC3)O[C@@H]1C[C@H]1[C@@H]3CCC4=CC(=O)C=C[C@]4(C)[C@H]3[C@@H](O)C[C@@]12C", "note": "[ciclesonide]", "values": [{"measurement": "fold less potent than fluticasone (ratio of ED50)", "setting": "[1]; 100 μg/30 μg", "result": "threefold"}, {"measurement": "ED50 based on neutrophil infiltration and cytokine production data", "setting": "[1]", "result": 0.1, "unit": "mg"}, {"measurement": "ED50 in the LPS assay", "setting": "[1]", "result": 100, "unit": "µg"}, {"measurement": "EDmax", "setting": "[1]", "result": 0.3, "unit": "mg"}, {"measurement": "dose of maximum effect (EDmax)", "setting": "[1]", "result": 300, "unit": "µg"}, {"measurement": "fold less potent than fluticasone at inducing thymus involution", "setting": "thymus [2]", "result": "sixfold"}, {"measurement": "particle size D50 of the bulk material", "setting": "[3]", "result": 56, "unit": "μm"}, {"measurement": "particle size D50 after micronization", "setting": "[3]", "result": 0.22, "unit": "μm"}, {"measurement": "average thymus involution", "setting": "thymus [4]", "result": "41.0 ± 4.3", "unit": "%"}, {"measurement": "average adrenal involution", "setting": "adrenal [5]", "result": "7.6 ± 5.3", "unit": "%"}, {"measurement": "plasma protein binding", "setting": "[6]", "result": "> 99", "unit": "%"}, {"measurement": "ED50, antigen-induced influx of eosinophils in airway BALF and lung tissue", "setting": "[7]", "result": 0.49, "unit": "mg/kg"}, {"measurement": "fold less potent than fluticasone in terms of ED50", "setting": "[7]; antigen-induced airway eosinophilia and Sephadex-induced lung edema", "result": "7–9"}, {"measurement": "ED50 for the inhibition of eosinophil infiltration into BALF", "setting": "[7]", "result": 0.75, "unit": "mg/kg"}, {"measurement": "ED50, inhibition of accumulation of eosinophils in BALF", "setting": "[7]; separate study, same preclinical model", "result": 0.5, "unit": "mg/kg"}, {"measurement": "fold less potent than fluticasone at decreasing bone growth", "setting": "bone growth", "result": 22}, {"measurement": "effect on plasma corticosterone levels", "setting": "[10]", "result": "did not change corticosterone levels"}, {"measurement": "fold less potent than fluticasone at inducing adrenal involution", "setting": "adrenal [11]", "result": 44}]}, {"smiles": "C[C@]12C=CC(=O)C=C1CC[C@@H]1[C@@H]2[C@@H](O)C[C@@]2(C)[C@H]1C[C@H]1O[C@@H](C3CCCCC3)O[C@]12C(=O)CO", "note": "[des-CIC, desisobutyryl-ciclesonide]", "values": [{"measurement": "ratio of systemic exposure, des-CIC versus fluticasone at ED50 doses", "setting": "[12]", "result": "greater than sixfold"}, {"measurement": "plasma protein binding", "setting": "[6]", "result": "> 99", "unit": "%"}]}]}
